Test results as given in PubChem BioAssay AID330 (DTP/NCI, 2004).
Values joined by “and” are separate entries in the source; they are usually repeats but may differ in a detail not shown here. Equal values may be shown once. Inconclusive results and toxic doses are left out. Square brackets hold non-standard residues; d marks the D form. Peptide text beside a SMILES is read from it. * marks the point of attachment. ξ: configuration not given here. Cbz = O=C(OCc1ccccc1)*; ξL = CC(C)CC(N)C(=O)O; OBn = c1ccc(CO*)cc1

Test system: P388 leukemia ip, CD2F1 mice, survival T/C
Experiment: NCI In Vivo Anticancer Drug Screen. Data for tumor model P388 Leukemia (intraperitoneal) in CD2F1 (CDF1) mice
Conditions: endpoint: median survival time, higher = longer survival
How it was run: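 Mice carrying the transplanted tumor received test compound or vehicle. Survival was recorded in each group, and the value is the treated-group measurement divided by that of the vehicle-treated control group.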

[1] = dose: 60.0 mg/kg/injection, schedule: Q01DX005 (ip), vehicle: saline with Tween-80
[2] = dose: 120.0 mg/kg/injection, schedule: Q01DX005 (ip), vehicle: saline with Tween-80
[3] = dose: 240.0 mg/kg/injection, schedule: Q01DX005 (ip), vehicle: saline with Tween-80
[4] = dose: 50.0 mg/kg/injection, schedule: Q01DX005 (ip), vehicle: saline with Tween-80

CC(=O)OCC1OC(OC(C)=O)C(N(CCCl)CCCl)C(OC(C)=O)C1OC(C)=O (centres undefined)
T/C (dose: 0.31 mg/kg/injection, schedule: Q01DX005 (ip), vehicle: water): 151 % of control
T/C (dose: 0.62 mg/kg/injection, schedule: Q01DX005 (ip), vehicle: water): 151 % of control
T/C (dose: 1.25 mg/kg/injection, schedule: Q01DX005 (ip), vehicle: distilled water + Tween-80): 181 % of control
T/C (dose: 1.25 mg/kg/injection, schedule: Q01DX005 (ip), vehicle: water): 177 % of control
T/C (dose: 2.5 mg/kg/injection, schedule: Q01DX005 (ip), vehicle: distilled water + Tween-80): 216 % of control
T/C (dose: 2.5 mg/kg/injection, schedule: Q01DX005 (ip), vehicle: water): 213 % of control
T/C (dose: 5.0 mg/kg/injection, schedule: Q01DX005 (ip), vehicle: water): 110 % of control

Cn1c(N)nc(N)c(NC=O)c1=O
T/C (dose: 50.0 mg/kg/injection, schedule: Q01DX005 (ip), vehicle: Klucel (hydroxypropylcellulose) (HPC)): 101 % of control
T/C (dose: 100.0 mg/kg/injection, schedule: Q01DX005 (ip), vehicle: Klucel (hydroxypropylcellulose) (HPC)): 103 % of control
T/C (dose: 200.0 mg/kg/injection, schedule: Q01DX005 (ip), vehicle: Klucel (hydroxypropylcellulose) (HPC)): 101 % of control

CCOC(=O)c1ccc(NC(=O)Oc2cc(=O)oc3ccccc23)cc1
T/C [1]: 91 % of control
T/C [2]: 94 % of control
T/C [3]: 99 % of control

CC(C)CC(NC(=O)OCc1ccccc1)C(=O)NCC(=O)NCC(=O)OCc1ccccc1 (stereo not drawn) (Cbz-[ξL]-Gly-Gly-OBn)
T/C [4]: 105 % of control
T/C (dose: 100.0 mg/kg/injection, schedule: Q01DX005 (ip), vehicle: saline with Tween-80): 105 % of control
T/C (dose: 200.0 mg/kg/injection, schedule: Q01DX005 (ip), vehicle: saline with Tween-80): 102 % of control

Nc1nnn(CCCl)n1
T/C (dose: 100.0 mg/kg/injection, schedule: Q01DX001 (ip), vehicle: Klucel (hydroxypropylcellulose) (HPC)): 88 % of control
T/C (dose: 200.0 mg/kg/injection, schedule: Q01DX001 (ip), vehicle: Klucel (hydroxypropylcellulose) (HPC)): 88 % of control

Cc1ccc(S(=O)(=O)NC(CN)C(=O)O)cc1 (centres undefined)
T/C (dose: 25.0 mg/kg/injection, schedule: Q01DX009 (ip), vehicle: other): 104 % of control
T/C (dose: 50.0 mg/kg/injection, schedule: Q01DX009 (ip), vehicle: other): 101 % of control
T/C (dose: 100.0 mg/kg/injection, schedule: Q01DX009 (ip), vehicle: other): 101 % of control
T/C (dose: 200.0 mg/kg/injection, schedule: Q01DX009 (ip), vehicle: other): 107 % of control
T/C (dose: 400.0 mg/kg/injection, schedule: Q01DX009 (ip), vehicle: other): 104 % of control

O=C(Oc1ccccc1)N1CCCSC1=S
T/C [1]: 98 % of control
T/C [2]: 100 % of control

Cc1cc2nc3ccc(N(C)C)cc3nc2cc1N
T/C (dose: 12.5 mg/kg/injection, schedule: Q01DX005 (ip), vehicle: saline): 96 % of control
T/C (dose: 25.0 mg/kg/injection, schedule: Q01DX005 (ip), vehicle: saline): 100 % of control
T/C [4]: 95 % of control
T/C (dose: 50.0 mg/kg/injection, schedule: Q01DX005 (ip), vehicle: saline): 112 % of control

CN(Cc1ccccc1)C(=O)Nc1c(Cl)cccc1Cl
T/C [1]: 103 % of control
T/C [2]: 99 % of control
T/C [3]: 95 % of control

C=C1C(=O)OC2C1C(OC(=O)/C(C)=C/CO)C/C(C)=C/CCC1(CO)OC21 (centres undefined)
T/C (dose: 0.5 mg/kg/injection, schedule: Q01DX009 (ip), vehicle: Klucel (hydroxypropylcellulose) (HPC)): 100 % of control
T/C (dose: 1.0 mg/kg/injection, schedule: Q01DX009 (ip), vehicle: Klucel (hydroxypropylcellulose) (HPC)): 91 % of control
T/C (dose: 2.0 mg/kg/injection, schedule: Q01DX009 (ip), vehicle: Klucel (hydroxypropylcellulose) (HPC)): 100 % of control
T/C (dose: 4.0 mg/kg/injection, schedule: Q01DX009 (ip), vehicle: Klucel (hydroxypropylcellulose) (HPC)): 103 % of control and 113 % of control
T/C (dose: 8.0 mg/kg/injection, schedule: Q01DX009 (ip), vehicle: Klucel (hydroxypropylcellulose) (HPC)): 105 % of control
T/C (dose: 16.0 mg/kg/injection, schedule: Q01DX009 (ip), vehicle: Klucel (hydroxypropylcellulose) (HPC)): 118 % of control

NC(Cc1ccccc1)P(=O)(O)O (centres undefined)
T/C (dose: 25.0 mg/kg/injection, schedule: Q01DX009 (ip), vehicle: suspension in saline): 97 % of control
T/C (dose: 50.0 mg/kg/injection, schedule: Q01DX009 (ip), vehicle: suspension in saline): 99 % of control
T/C (dose: 100.0 mg/kg/injection, schedule: Q01DX009 (ip), vehicle: suspension in saline): 99 % of control
T/C (dose: 200.0 mg/kg/injection, schedule: Q01DX009 (ip), vehicle: suspension in saline): 97 % of control

Cc1nc(C(=O)N=C(N)N)c(N)nc1-c1ccccc1
T/C (dose: 15.0 mg/kg/injection, schedule: Q01DX005 (ip), vehicle: saline with Tween-80): 106 % of control
T/C (dose: 30.0 mg/kg/injection, schedule: Q01DX005 (ip), vehicle: saline with Tween-80): 104 % of control
T/C [1]: 100 % of control

CCN(CC)c1ccc2c(-c3ccccc3C(=O)O)c3ccc(=[N+](CC)CC)cc-3oc2c1
T/C (dose: 5.0 mg/kg/injection, schedule: Q01DX009 (ip), vehicle: saline with Tween-80): 104 % of control
T/C (dose: 10.0 mg/kg/injection, schedule: Q01DX009 (ip), vehicle: saline with Tween-80): 104 % of control
T/C (dose: 20.0 mg/kg/injection, schedule: Q01DX009 (ip), vehicle: saline with Tween-80): 100 % of control

O=C1OCCOCCOCCOCCOCCOCCOC(=O)c2cccc1n2
T/C (dose: 100.0 mg/kg/injection, schedule: Q04DX003 (ip), vehicle: Klucel (hydroxypropylcellulose) (HPC)): 100 % of control
T/C (dose: 200.0 mg/kg/injection, schedule: Q04DX003 (ip), vehicle: Klucel (hydroxypropylcellulose) (HPC)): 100 % of control
T/C (dose: 400.0 mg/kg/injection, schedule: Q04DX003 (ip), vehicle: Klucel (hydroxypropylcellulose) (HPC)): 100 % of control

C[Si](C)(CNCCN)O[Si](C)(C)CNCCN
T/C (dose: 60.0 mg/kg/injection, schedule: Q01DX005 (ip), vehicle: saline): 99 % of control
T/C (dose: 120.0 mg/kg/injection, schedule: Q01DX005 (ip), vehicle: saline): 90 % of control
T/C (dose: 240.0 mg/kg/injection, schedule: Q01DX005 (ip), vehicle: saline): 101 % of control

COc1ccc(C(O)C2c3cc4c(cc3CCN2C)OCO4)c(CO)c1OC (centres undefined)
T/C (dose: 25.0 mg/kg/injection, schedule: Q01DX001 (ip), vehicle: saline + alcohol): 88 % of control
T/C (dose: 50.0 mg/kg/injection, schedule: Q01DX001 (ip), vehicle: saline + alcohol): 95 % of control
T/C (dose: 100.0 mg/kg/injection, schedule: Q01DX001 (ip), vehicle: saline + alcohol): 104 % of control

COc1cccc2c1C(=O)c1c(O)c3c(c(O)c1C2=O)C[C@@](O)(/C(C)=N/NC(=O)c1cccc([N+](=O)[O-])c1)C[C@@H]3OC1CC(N)C(O)C(C)O1 (some centres undefined)
T/C (dose: 0.5 mg/kg/injection, schedule: Q01DX009 (ip), vehicle: water): 152 % of control
T/C (dose: 1.0 mg/kg/injection, schedule: Q01DX009 (ip), vehicle: water): 155 % of control
T/C (dose: 1.0 mg/kg/injection, schedule: Q04DX003 (ip), vehicle: saline): 100 % of control and 112 % of control
T/C (dose: 1.56 mg/kg/injection, schedule: Q04DX003 (ip), vehicle: water): 106 % of control
T/C (dose: 2.0 mg/kg/injection, schedule: Q01DX009 (ip), vehicle: water): 172 % of control and 179 % of control
T/C (dose: 2.0 mg/kg/injection, schedule: Q04DX003 (ip), vehicle: saline): 100 % of control and 115 % of control
T/C (dose: 3.13 mg/kg/injection, schedule: Q04DX003 (ip), vehicle: water): 112 % of control and 117 % of control
T/C (dose: 4.0 mg/kg/injection, schedule: Q01DX009 (ip), vehicle: water): 190 % of control and 200 % of control
T/C (dose: 4.0 mg/kg/injection, schedule: Q04DX003 (ip), vehicle: saline): 113 % of control and 122 % of control
T/C (dose: 5.0 mg/kg/injection, schedule: Q01DX001 (ip), vehicle: water): 167 % of control
T/C (dose: 6.25 mg/kg/injection, schedule: Q04DX003 (ip), vehicle: water): 114 % of control and 122 % of control
T/C (dose: 8.0 mg/kg/injection, schedule: Q01DX009 (ip), vehicle: water): 123 % of control and 202 % of control
T/C (dose: 8.0 mg/kg/injection, schedule: Q04DX003 (ip), vehicle: saline): 112 % of control and 115 % of control and 95 % of control
T/C (dose: 10.0 mg/kg/injection, schedule: Q01DX001 (ip), vehicle: water): 186 % of control
T/C (dose: 16.0 mg/kg/injection, schedule: Q04DX003 (ip), vehicle: saline): 110 % of control and 115 % of control and 123 % of control
T/C (dose: 25.0 mg/kg/injection, schedule: Q04DX003 (ip), vehicle: water): 168 % of control
T/C (dose: 32.0 mg/kg/injection, schedule: Q04DX003 (ip), vehicle: saline): 118 % of control
T/C (dose: 64.0 mg/kg/injection, schedule: Q04DX003 (ip), vehicle: saline): 174 % of control
T/C (dose: 100.0 mg/kg/injection, schedule: Q04DX003 (ip), vehicle: water): 114 % of control
T/C (dose: 512.0 mg/kg/injection, schedule: Q04DX003 (ip), vehicle: saline): 92 % of control
T/C (dose: 1024.0 mg/kg/injection, schedule: Q04DX003 (ip), vehicle: saline): 93 % of control
T/C (dose: 2048.0 mg/kg/injection, schedule: Q04DX003 (ip), vehicle: saline): 90 % of control
